Paper PMC6687188, “Novel lactate dehydrogenase inhibitors with in vivo efficacy against Cryptosporidium parvum” (PLoS Pathogens, 2019)

Target: recombinant CpLDH protein (Cryptosporidium parvum, UniProt Q9GT92, F198L/K295E/R251K)
Settings: not given

| SMILES | MEAN CpLDH INHIBITION (%) |
| --- | --- |
| Cc1cc(O)c2c(c1)C(=O)c1cc(O)cc(O)c1C2=O [NSC408120] | -6.79% |
| CC(C)CCCCCCCCCCCCC(=O)NCC(=O)NC1C(C)OC(Nc2ncnc3nc[nH]c23)C(O)C1O (centres unmarked) [NSC268251] | -8.04% |
| O=C(CC1(O)C(=O)Nc2c(Cl)ccc(Cl)c21)c1ccc(Cl)cc1 (centres unmarked) [NSC635437] | -7.08% |
| O=S(=O)(O)SC/C=C\CSS(=O)(=O)O.[Na+] [NSC624161] | -27.85% |
| CC(C)N.CC(C)N.[Cl-].[Cl-].[OH-].[OH-].[Pt] [NSC256927] | -46.96% |
| O=c1cnn(C2OC(CO)C(O)C2O)c(=S)[nH]1 (centres unmarked) [NSC146268] | -43.94% |
| CN(C)CCNC(=O)c1cccc2[nH]c(-c3ccncc3)nc12.Cl [NSC678932] | -5.91% |
| C=C(C#N)C(=O)OCC(CC)CC.C=C(C#N)C(=O)OCC(CC)CC.CS(C)=O.CS(C)=O.Nc1c(N=Nc2ccc(-c3ccc(N=Nc4cc(S(=O)(=O)[O-])c5ccccc5c4N)cc3)cc2)cc(S(=O)(=O)[O-])c2ccccc12.[Pt+2] [NSC615593] | -2.09% |
| COc1ccc(O)c2c(=O)c3c(OC)cc4c(c3oc12)[C@@H]1C=CO[C@@H]1O4 [NSC178249] | -31.06% |
| CCN(CC)Cc1cc(N=Nc2c(O)ccc3c(N=Nc4ccc(O)c(CN(CC)CC)c4)c(O)ccc23)ccc1O.Cl [NSC359463] | -17.14% |
| COc1ccc(C2c3cc4c(c(OC)c3CC3OCC(=O)C32)OCO4)cc1OC (centres unmarked) [NSC126727] | -5.88% |
| C=C1C(=O)O[C@H]2/C=C(/C)C(=O)C[C@@H]3OC(C)(C)O[C@@]3(C)C[C@H](OC(=O)/C(C)=C\C)[C@H]12 [NSC329696] | -30.73% |
| O=[Se]([O-])[O-].[Na+].[Na+] [NSC347466] | -3.84% |
| COC1=C(N)C(=O)c2nc(C)ccc2C1=O [NSC132493] | -117.70% |
| Cc1ccc(/C=C2\CNC/C(=C\c3ccc(C)cc3)C2=O)cc1.Cl [NSC632839] | -15.78% |
| C=C1[C@@H](C)[C@H]2[C@H](Cc3ccccc3)NC(=O)C23[C@H](OC(C)=O)/C=C/[C@@](C)(O)C[C@@H](C)C/C=C/[C@H]3[C@@H]1O (some centres unmarked) [NSC305222] | -217.96% |
| O=C(NC(=O)c1c(Cl)nc2sccn12)Nc1ccc(Cl)cc1 [NSC633209] | -19.92% |
| O=C1N[C@@H]2C(=C[C@H](O)[C@@H](O)[C@H]2O)c2cc3c(cc21)OCO3 [NSC349155] | -5.62% |
| CC1=Nc2ccccc2/C1=C\c1c(C)[nH]c2ccccc12 [NSC76747] | -6.97% |
| COc1cc(C(O)CCBr)c(OC)cc1C (centres unmarked) [NSC611750] | -11.25% |
| BrC(/C=N/Nc1nnc(-c2ccccc2)c(-c2ccccc2)n1)C(Br)c1ccccc1 (centres unmarked) [NSC640638] | -14.60% |
| COC(=O)C[S+]([O-])c1ccccc1 (centres unmarked) [NSC620050] | -37.27% |
| Cc1cc2nc(C=C(C(F)(F)F)C(F)(F)F)oc2cc1C [NSC168415] | -49.77% |
| CC1(C)CCC[C@]2(C)C3=C(CC[C@@H]12)C(=O)OC3 [NSC375294] | -39.63% |
| N#CC1(C#N)C2C=CC(c3coc4cccc2c34)C1(C#N)C#N (centres unmarked) [NSC629301] | -23.71% |
| N#C/C(=C\c1ccc2ccccc2c1)C(=O)c1ccccc1 [NSC643186] | -12.83% |
| COc1cc(/C=C(\OC(C)=O)c2ccc3c(c2)OCO3)cc(OC)c1OC [NSC647363] | -3.74% |
| NC1=C(Br)C(=O)c2ncccc2C1=O [NSC105808] | -67.00% |

| SMILES | MEAN CpLDH INHIBITION (%) |
| --- | --- |
| CCOC(=O)c1ccc(N=Cc2ccc(N(CCC#N)CCC#N)cc2)cc1 [NSC620279] | -17.13% |
| CN(C)[C@@H]1C(=O)C(C(N)=O)=C(O)[C@@]2(O)C(=O)C3=C(O)c4c(O)cccc4C[C@H]3C[C@@H]12 [NSC51812] | -26.06% |
| CN(C)CCOc1ccc(I)cc1Cc1ccccc1.Cl [NSC11930] | -34.92% |
| Cc1nnc(-n2c(O)cc(=O)n(-c3ccccc3)c2=S)nc1/C=C/c1ccc(N(C)C)cc1 [NSC698031] | -6.31% |
| COC(=O)[C@@H]1c2cc3c(c(O)c2[C@@H](OC)C[C@@]1(C)O)C(=O)c1c(O)cc2c(c1C3=O)O[C@H]1O[C@@]2(C)[C@H](O)[C@@H](N(C)C)[C@@H]1O [NSC102815] | -3.42% |
| Oc1cc(-n2cccn2)c(O)cc1-n1cccn1 [NSC645987] | -40.48% |
| O=C(/C=C/c1c(O)ccc2ccccc12)c1cccc(O)c1 [NSC636786] | -25.27% |
| Cn1cnc([N+](=O)[O-])c1Sc1nnc(-c2cccnc2)n1C [NSC631160] | -15.11% |
| COc1ccc(C[C@@H]2NC[C@@H](O)[C@@H]2OC(C)=O)cc1.Cl [NSC147340] | -13.68% |
| O=[N+]([O-])c1cc(-c2nc(=S)[nH][nH]2)ccc1O [NSC635563] | -59.68% |
| CN1C(Cl)=NS(=O)(=O)c2ccccc21 [NSC373853] | -15.72% |
| COc1ccc(OC)c(-c2cc(=O)c3c(OC)c(OC)c(OC)c(OC)c3o2)c1 [NSC71300] | -64.35% |
| C[CH2][Ge]([CH2]C)([CH2]C)[O]C(=O)CCC(=O)[O][Ge]([CH2]C)([CH2]C)[CH2]C [NSC653558] | -17.98% |
| CC1(C)N=C(N)N=C(N)N1c1ccc(OCCCOc2ccccc2)c(Cl)c1.CCS(=O)(=O)O [NSC133071] | -57.79% |
| C[C@]12CC[C@@H]3c4ccccc4CC[C@H]3[C@@H]1CC[C@@H]2O [NSC22194] | -50.61% |
| CC1CCCC(C(=O)/C(=C/c2cccc(Cl)c2)C(=O)C(=O)O)C1 (centres unmarked) [NSC636084] | -20.56% |
| CCOC(OCC)C(CC)[Se]c1ccccc1[N+](=O)[O-] (centres unmarked) [NSC646200] | -24.52% |
| Cc1cc(N(C)C)ccc1N=Nc1ccc2ncccc2c1 [NSC680516] | -19.55% |
| CC(=O)[O][Hg].c1ccc2c(c1)ccc1ccccc12 [NSC534] | -63.87% |
| O=C(O)c1ccc(NC(c2ccccc2)c2ccc3cccnc3c2O)cc1 (centres unmarked) [NSC1011] | -0.99% |
| Cn1ncc2cc3c(Nc4ccc(Cl)cc4)cccc3nc21 [NSC622732] | -35.66% |
| CCC1CN2CCc3cc(OC)c(OC)cc3C2CC1CC1c2cc(OC)c(OC)cc2CCN1C(=O)C1CCCN1C(=O)OCc1ccccc1 (centres unmarked) [NSC103248] | -105.50% |
| CC(C)c1ccc2nc3ccc(C(=O)NCCN(C)C)cn3c(=O)c2c1 [NSC600305] | -31.37% |
| CCCNC1=C(C)C(=O)C2=C(C1=O)[C@H](COC(N)=O)[C@]1(OC)[C@@H]3N[C@@H]3CN21 [NSC123115] | -0.99% |
| CC(C)C1(Cl)CCC2C3(C)CCCC(C)(C(=O)O)C3CC(Cl)C2(Cl)C1Cl (centres unmarked) [NSC2979] | -29.91% |
| Br.COC1CN(C)C(=Nc2cccc3ccccc23)S1 (centres unmarked) [NSC135996] | -24.95% |
| COc1cc2c3c(n(C)c(=O)c2cc1OC)-c1cc2c(cc1C3=O)OCO2 [NSC314622] | -4.47% |

Same assay, conditions: 20 μM compound; 10 mM pyruvate, 1 mM NADH; values below 0 = augmenters

| SMILES | MEAN CpLDH INHIBITION (%) |
| --- | --- |
| Cc1ccc(S(=O)(=O)c2ccc([N+](=O)[O-])o2)cc1 [NSC697923] | -17.27% |
